Laboratory results published in patent publication US20240116946A1 (Gilead Sciences, Inc., priority 2022, published 2024).
Like-named read-outs stand apart in the source and are kept apart here.

Legend:
[1] = target: recombinant SARS-CoV-2 Main protease (Mpro) (Severe acute respiratory syndrome coronavirus 2 (2019-nCoV) (SARS-CoV-2), UniProt P0DTD1); assay: Cov Mpro Biochemical IC50 Assay; conditions: fluorogenic peptide substrate 40 μM
SARS-CoV-2-NLuc = assay: microbe, parasite or virus in culture; format: cell-based, SARS Coronavirus 2
[2] = recombinant SARS-CoV-2 Mpro 7.5 nM, read-out: MPro IC50
[3] = Severe acute respiratory syndrome coronavirus, 48 h, read-out: MPro EC50
[4] = MPro IC50, recombinant SARS-CoV-2 Mpro 7.5 nM
[5] = Severe acute respiratory syndrome coronavirus, 48 h; read-out: MPro EC50

SMILES | IC50 [1, 2] [nM] | EC50 (SARS-CoV-2-NLuc; [3]) [nM] | IC50 [1, 4] [nM] | EC50 (SARS-CoV-2-NLuc; [5]) [nM]
COc1cc(-c2cc3c(s2)c(=O)n(-c2cncc4cccnc24)c(=O)n3CC2(C#N)CC2)c(Cl)cc1F [Example 709] | 6.21 | 2.09 | – | –
N#CCn1c(=O)n(-c2cncc3cccnc23)c(=O)c2sc(-c3ccccc3Cl)cc21 [Example 710] | < 4.33 | 22.6 | – | –
N#CC1(Cn2c(=O)n(-c3cncc4cccnc34)c(=O)c3sc(-c4ccccc4Cl)cc32)CC1 [Example 711] | 4.41 | 1.71 | – | –
COc1cc(-c2cc3[nH]c(=O)n(-c4cncc5ccc(=O)n(C)c45)c(=O)c3s2)c(Cl)cc1F [Example 712] | 6.85 | 12.4 | – | –
COc1cc(-c2cc3[nH]c(=O)n(-c4cnccc4C)c(=O)c3s2)c(Cl)cc1F [Example 713] | – | – | 9.18 | 15
COc1cc(-c2cc3[nH]c(=O)n(-c4cnnc(C)c4)c(=O)c3s2)c(Cl)cc1F [Example 714] | > 1000 | > 1000 | – | –
COc1cc(-c2cc3[nH]c(=O)n(-c4cncc(Cl)c4)c(=O)c3s2)c(Cl)cc1F [Example 715] | 4.63 | – | – | 9.94
COc1cc(-c2cc3[nH]c(=O)n(-c4cncc5ccccc45)c(=O)c3s2)c(C)cc1Cl [Example 716] | 15.9 | 18.7 | – | –
COc1cc(-c2cc3[nH]c(=O)n(-c4cncc5ccccc45)c(=O)c3s2)c(C)cc1C [Example 717] | 23.8 | 25.3 | – | –
COc1cnc(C)c(-c2cc3[nH]c(=O)n(-c4cncc5ccccc45)c(=O)c3s2)c1 [Example 718] | 106 | 371 | – | –
COc1cc(-c2cc3[nH]c(=O)n(-c4cncc5ccccc45)c(=O)c3s2)c(C)cn1 [Example 719] | 364 | 938 | – | –
Cc1cc(F)cc(Cl)c1-c1cc2[nH]c(=O)n(-c3cncc4ccccc34)c(=O)c2s1 [Example 720] | 110 | 100 | – | –
Cc1cc(Cl)cc(Cl)c1-c1cc2[nH]c(=O)n(-c3cncc4ccccc34)c(=O)c2s1 [Example 721] | 705 | 478 | – | –
COc1ccc(-c2cc3[nH]c(=O)n(-c4cncc5ccccc45)c(=O)c3s2)c(Cl)c1 [Example 722] | 34 | 68.8 | – | –
COc1cc(Cl)c(-c2cc3[nH]c(=O)n(-c4cncc5ccccc45)c(=O)c3s2)cc1C [Example 723] | 21.1 | 17.2 | – | –
COc1cc(Cl)c(-c2cc3[nH]c(=O)n(-c4cncc5ccccc45)c(=O)c3s2)cc1Cl [Example 724] | 9.42 | 17.1 | – | –
COc1cc(Cl)c(-c2cc3[nH]c(=O)n(-c4cncc5ccccc45)c(=O)c3s2)cc1F [Example 725] | 8.5 | 19.4 | – | –
O=c1[nH]c2cc(-c3cc(Cl)c(F)cc3Cl)sc2c(=O)n1-c1cncc2ccccc12 [Example 726] | 22.8 | 39 | – | –
N#CCn1c(=O)n(-c2cncc3ccccc23)c(=O)c2sc(-c3ccc(F)cc3Cl)cc21 [Example 727] | 3.09 | 8.36 | – | –
N#CCn1c(=O)n(-c2cncc3ccccc23)c(=O)c2sc(-c3cc(F)ccc3Cl)cc21 [Example 728] | 2.7 | 4.34 | – | –

SMILES | IC50 [1, 2] [nM] | EC50 (SARS-CoV-2-NLuc; [3]) [nM] | IC50 [1, 4] [nM] | EC50 (SARS-CoV-2-NLuc; [5]) [nM]
COc1cc(-c2cc3[nH]c(=O)n(-c4cncc5c4CCCC5)c(=O)c3s2)c(Cl)cc1F [Example 729] | 6.1 | – | – | 7.78
COc1cc(-c2cc3[nH]c(=O)n(-c4cncc5cnn(CC(F)F)c45)c(=O)c3s2)c(Cl)cc1F [Example 730] | 10.1 | 28.9 | – | –
COc1cc(-c2cc3[nH]c(=O)n(-c4cncc5nn(C)cc45)c(=O)c3s2)c(Cl)cc1F [Example 731] | 5.04 | 65.6 | – | –
CCn1ncc2cncc(-n3c(=O)[nH]c4cc(-c5cc(OC)c(F)cc5Cl)sc4c3=O)c21 [Example 732] | 15.1 | 15.7 | – | –
COCCn1ncc2cncc(-n3c(=O)[nH]c4cc(-c5cc(OC)c(F)cc5Cl)sc4c3=O)c21 [Example 733] | 15.2 | 25.8 | – | –
CCn1cc2cncc(-n3c(=O)[nH]c4cc(-c5cc(OC)c(F)cc5Cl)sc4c3=O)c2n1 [Example 734] | 5.17 | 43.5 | – | –
COCCn1cc2cncc(-n3c(=O)[nH]c4cc(-c5cc(OC)c(F)cc5Cl)sc4c3=O)c2n1 [Example 735] | 6.65 | 71 | – | –
COc1cc(-c2cc3[nH]c(=O)n(-c4cncc5ncccc45)c(=O)c3s2)c(Cl)cc1F [Example 737] | 17.9 | 74.1 | – | –
COc1cc(-c2cc3[nH]c(=O)n(-c4c(C)ccnc4F)c(=O)c3s2)c(Cl)cc1F [Example 738] | 13.4 | – | – | 26.2
COc1cc(-c2cc3[nH]c(=O)n(-c4cncc5ccncc45)c(=O)c3s2)c(Cl)cc1F [Example 739] | 9.45 | – | – | 17.5
COc1cc(-c2cc3[nH]c(=O)n(-c4cncc5nn(CC(F)(F)F)c(C)c45)c(=O)c3s2)c(Cl)cc1F [Example 740] | 47.9 | 103 | – | –
COc1cc(-c2cc3[nH]c(=O)n(-c4cncc5c4c(C)nn5CC(F)(F)F)c(=O)c3s2)c(Cl)cc1F [Example 741] | > 1000 | > 1000 | – | –
COc1cc(-c2cc3[nH]c(=O)n(-c4cncc(Cl)c4Cl)c(=O)c3s2)c(Cl)cc1F [Example 742] | 15.2 | 26.2 | – | –
COc1cc(-c2cc3[nH]c(=O)n(-c4cncc(Cl)c4C)c(=O)c3s2)c(Cl)cc1F [Example 743, 6-(2-chloro-4-fluoro-5-methoxy-phenyl)-3-(5-chloro-4-methyl-3-pyridyl)-1H-thieno[3,2-d]pyrimidine-2,4-dione] | 12.1 | – | – | 16.3
COc1cc(-c2cc3[nH]c(=O)n(-c4nncc5ccccc45)c(=O)c3s2)c(Cl)cc1F [Example 744] | 21.7 | – | – | 85
COc1cc(-c2cc3[nH]c(=O)n(-c4cnnc5ccccc45)c(=O)c3s2)c(Cl)cc1F [Example 745] | 92 | – | – | 257
COc1cc(-c2cc3[nH]c(=O)n(-c4cc(C)cnn4)c(=O)c3s2)c(Cl)cc1F [Example 746] | 4.17 | 54.3 | – | –
COc1cc(-c2cc3[nH]c(=O)n(-c4cncc(C)c4C)c(=O)c3s2)c(Cl)cc1F [Example 747] | 4.63 | 4.19 | – | –
COc1cc(-c2cc3[nH]c(=O)n(-c4cc(C(F)(F)F)cnn4)c(=O)c3s2)c(Cl)cc1F [Example 748] | 50.2 | – | – | 86.5
COc1cc(-c2cc3[nH]c(=O)n(-c4cncc5nnn(C)c45)c(=O)c3s2)c(Cl)cc1F [Example 749] | 7.35 | 32.6 | – | –

SMILES | IC50 [1, 2] [nM] | EC50 (SARS-CoV-2-NLuc; [3]) [nM] | IC50 [1, 4] [nM] | EC50 (SARS-CoV-2-NLuc; [5]) [nM]
COc1cc(-c2cc3[nH]c(=O)n(-c4cncc5c4n(C)c(=O)n5C)c(=O)c3s2)c(Cl)cc1F [Example 750] | 7.76 | 36.6 | – | –
COc1cc(-c2cc3[nH]c(=O)n(-c4cncc5cnn(C)c45)c(=O)c3s2)c(C#N)cc1F [Example 751, 5-fluoro-4-methoxy-2-[3-(1-methylpyrazolo[4,3-c]pyridin-7-yl)-2,4-dioxo-1H-thieno[3,2-d]pyrimidin-6-yl]benzonitrile] | 11.1 | 216 | – | –
COc1cc(-c2cc3[nH]c(=O)n(-c4cncc5c4c(C)nn5C)c(=O)c3s2)c(Cl)cc1F [Example 752] | 6.96 | 8.41 | – | –
COc1cc(-c2cc3[nH]c(=O)n(-c4cncc(C5CC5)c4)c(=O)c3s2)c(Cl)cc1F [Example 753] | – | – | 6.88 | 14.6
COc1cc(-c2cc3[nH]c(=O)n(-c4cncc5nn(C)c(C)c45)c(=O)c3s2)c(Cl)cc1F [Example 754] | 9.21 | 76.3 | – | –
COc1cc(-c2cc3c(s2)c(=O)n(-c2cncc4nc(C5CCC5)n(C)c24)c(=O)n3CCC#N)c(Cl)cc1F [Example 755] | 33.3 | 243 | – | –
COc1cc(-c2cc3c(s2)c(=O)n(-c2cncc4nc(-c5ccccc5F)n(C)c24)c(=O)n3CCC#N)c(Cl)cc1F [Example 756] | 19.6 | 90.7 | – | –
COc1cc(-c2cc3c(s2)c(=O)n(-c2cncc4nc(-c5coc(C)n5)n(C)c24)c(=O)n3CCC#N)c(Cl)cc1F [Example 757] | 11.4 | 40.3 | – | –
COc1cc(-c2cc3c(s2)c(=O)n(-c2cncc4nc(-c5ccc(F)cc5)n(C)c24)c(=O)n3CCC#N)c(Cl)cc1F [Example 758] | 18.9 | 142 | – | –
COc1cnc(Cl)c(-c2cc3c(s2)c(=O)n(-c2cncc4ccccc24)c(=O)n3CC2(C#N)CC2)c1 [Example 759] | 5.39 | 4.85 | – | –
COc1cnc(Cl)c(-c2cc3[nH]c(=O)n(-c4cncc5cccc(F)c45)c(=O)c3s2)c1 [Example 760] | 15.6 | 93.7 | – | –
COc1cnc(C#N)c(-c2cc3[nH]c(=O)n(-c4cncc5cccc(F)c45)c(=O)c3s2)c1 [Example 761] | 45.6 | – | – | 398
COc1cc(-c2cc3[nH]c(=O)n(-c4cncc5cccc(F)c45)c(=O)c3s2)c(C#N)cc1F [Example 762] | 7.21 | 20.3 | – | –
COc1cc(-c2cc3[nH]c(=O)n(-c4cncc5ccc(F)cc45)c(=O)c3s2)c(Cl)cc1F [Example 763] | 10.2 | 13.4 | – | –
COc1cc(-c2cc3[nH]c(=O)n(-c4cncc5nc(C)n(C)c45)c(=O)c3s2)c(Cl)cc1F [Example 764] | 18.1 | 257 | – | –
COc1cc(-c2cc3[nH]c(=O)n(-c4cncc5cnn(C)c45)c(=O)c3cc2OC)c(C#N)cc1F [Example 765] | 13.9 | 94.2 | – | –
COc1cc(-c2cc3[nH]c(=O)n(-c4cncc5cnn(C)c45)c(=O)c3cc2F)c(C#N)cc1F [Example 766] | 18.9 | 102 | – | –
COc1cc(-c2cc3[nH]c(=O)n(-c4cncc5[nH]cc(C)c45)c(=O)c3s2)c(Cl)cc1F [Example 767] | 5.16 | 20.2 | – | –
